Measured values reported in patent US10611778B2, “Fused bicyclic inhibitors of menin-MLL interaction” (Janssen Pharmaceutica NV, priority 2016, dated 2020).
Like-named read-outs stand apart in the source and are kept apart here.

How the values were obtained:
[1] = target: T1, Menin/MLL (menin, FITC-MBM1 peptide) (Homo sapiens, UniProt O00255, T541A); assay: Menin/MLL fluorescence polarization (FP) assay; assay type: binding
T1 construct: 6xHis (C)
T1 sequence (O00255 with tags, fused parts or gaps T541A): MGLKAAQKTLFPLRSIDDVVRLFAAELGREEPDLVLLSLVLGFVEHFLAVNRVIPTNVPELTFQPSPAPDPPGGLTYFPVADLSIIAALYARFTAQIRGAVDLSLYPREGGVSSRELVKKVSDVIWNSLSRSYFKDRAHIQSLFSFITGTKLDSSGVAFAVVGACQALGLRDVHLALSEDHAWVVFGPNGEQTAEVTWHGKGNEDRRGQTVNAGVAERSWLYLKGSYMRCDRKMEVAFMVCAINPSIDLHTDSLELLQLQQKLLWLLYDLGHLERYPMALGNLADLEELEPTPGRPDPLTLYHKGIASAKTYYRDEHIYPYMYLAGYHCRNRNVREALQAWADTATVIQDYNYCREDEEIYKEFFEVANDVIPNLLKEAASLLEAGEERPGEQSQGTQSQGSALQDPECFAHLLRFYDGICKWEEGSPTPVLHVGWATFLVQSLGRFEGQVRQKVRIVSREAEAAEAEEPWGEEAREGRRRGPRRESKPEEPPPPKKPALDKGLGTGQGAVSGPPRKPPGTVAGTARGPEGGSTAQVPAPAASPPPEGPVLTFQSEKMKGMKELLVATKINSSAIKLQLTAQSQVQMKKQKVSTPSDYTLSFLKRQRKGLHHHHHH
Summary of the method: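 Compound pre-incubated 10 min with 100 nM menin (40 mM Tris-HCl pH 7.5, 50 mM NaCl, 1 mM DTT, 0.001% Tween 20), then 5 nM FITC-MBM1 peptide added for 15 min at ambient temperature; 0.625% DMSO final. FP read at ex 485/em 520 nm. IC50 from 11-point three-fold dilutions from 31 μM, % inhibition vs saturating-competitor controls.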

[2] = test system: MV-4-11; assay: Proliferation assay (spheroid assay) MV-4-11; assay type: cell-based, human
Summary of the method: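 Cells were grown as spheroids in ultra-low attachment round-bottom wells with compound (0.3% DMSO) for 8 d at 37 °C, imaged every 4 h, with confluence as spheroid size. AUC of confluence versus time (t=0 baseline) was expressed as % of DMSO control, and absolute IC50 came from a least-squares nonlinear fit.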

[3] = test system: K562; assay: Proliferation assay (spheroid assay) K562 control cell line; assay type: cell-based; conditions: Homo sapiens
Protocol: The anti-proliferative effect of menin/MLL protein/protein interaction inhibitor test compounds was assessed in human leukemia cell lines. The cell lines MV-4-11 and MOLM14 harbor MLL translocations and express the MLL fusion proteins MLL-AF4 and MLL-AF9, respectively, as well as the wildtype protein from the second allele. […] K562 and KG1 were used as a control cell lines containing two MLL wildtype alleles in order to exclude compounds that display general cytotoxic effects.
MV-4-11 and MOLM14 were cultured in RPMI-1640 (Sigma Aldrich) supplemented with 10% fetal bovine serum (HyClone), 2 mM L-glutamine (Sigma Aldrich) and 50 μg/ml gentamycin (Gibco). K562 were propagated in RPMI-1640 (Sigma Aldrich) supplemented with 20% fetal bovine serum (HyClone), 2 mM L-glutamine (Sigma Aldrich) and 50 μg/ml gentamycin (Gibco). KG1 were cultured in Iscove's MDM (Gibco) supplemented with 20% fetal bovine serum (HyClone), 2 mM L-glutamine (Sigma Aldrich) and 50 μg/ml gentamycin (Gibco).
In order to assess the anti-proliferative effects, 1,500 MV-4-11, 300 MOLM14, 750 K562 or 1,300 KG1 cells were seeded in 200 μl media per well in 96-well round bottom, ultra-low attachment plates (Costar, catalogue number 7007). Cell seeding numbers were chosen based on growth curves to ensure linear growth throughout the experiment. Test compounds were added at different concentrations and the DMSO content was normalized to 0.3%. Cells were incubated for 8 d at 37° C. and 5% CO2. Spheroid like growth was monitored in real-time by live-cell imaging (IncuCyteZOOM, Essenbio, 4× objective) acquiring one image every four hours for 8 d. Confluence (%) as a measure of spheroid size was determined using an integrated analysis tool.
In order to determine the cumulative effect of the test compounds over time, the area under the curve (AUC) in a plot of confluence against time was calculated. Confluence at the beginning of the experiment (t=0) was used as baseline for the AUC calculation.
Absolute IC50 values were calculated according to the following procedure: % Control=(AUC sample/AUC control)*100
AUC control=mean AUC of control values (cells without compound/DMSO as vehicle control)
A non-linear curve fit was applied using the least squares (ordinary) fit method to the plot of % control versus compound concentration. Based on this, the absolute IC50 value (half maximal inhibitory concentration of the test compound causing an anti-proliferative effect of 50% relative to the vehicle control) was calculated.

[4] = averaged values over all measurements, read-out: Menin FP assay (IC50)
[5] = Homo sapiens, MV4-11, MV-4-11, averaged values over all measurements, read-out: Spheroid assay MV-4-11 (IC50)
[6] = K562 control cell line, averaged values over all measurements, read-out: Spheroid assay K562 (IC50)

Compound	IC50 [1, 4] [µM]	IC50 [2, 5] [µM]	IC50 [3, 6] [µM]	IC50 ([1]; individual measurements (not averaged), read-out: (1) Menin FP assay (IC50 (μM))) [µM]	IC50 ([2]; Homo sapiens, MV4-11, 192 h, MV-4-11, 8 d, individual measurements (not averaged), read-out: (2) Spheroid assay MV-4-11 (IC50 (μM))) [µM]	IC50 ([2]; MV-4-11, 8 d, individual measurements (not averaged), read-out: (2) Spheroid assay MV-4-11 (IC50 (μM))) [µM]	IC50 ([3]; 192 h, K562, 8 d, individual measurements (not averaged), read-out: (2) Spheroid assay K562 (IC50 (μM))) [µM]
Fc1ccccc1CN1CC[C@H]2CN(c3ncnc4sc(CC(F)(F)F)cc34)CC[C@H]21 (single isomer, unassigned) [Compound 6]	0.21	1.4	9	–	–	–	–
FC(F)(F)Cc1cc2c(N3CC[C@H]4[C@H](CCN4Cc4ccc[nH]4)C3)ncnc2s1 (single isomer, unassigned) [Compound 8]	–	–	–	0.101	2.1	2.3	> 15
FC(F)(F)Cc1cc2c(N3CCC4C(CCN4Cc4ccccc4)C3)ncnc2s1 (stereo not shown) [Compound 1]	0.033	1.5	13.1	–	–	–	–
FC(F)(F)Cc1cc2c(N3CCC4C3CCN4Cc3ccccc3)ncnc2s1 (stereo not shown) [Compound 2]	0.34	7.3	> 15	–	–	–	–
